Assay [1] has as its system Cricetinae gen. sp. Nature of the assay: Effective dose required to produe activity in cholesterol hamster assay was determined; na means not applicable. In kind it is functional, organism-based. As to conditions: Cricetulus griseus.
For assay [2], the system named is Cricetinae gen. sp. Nature of the assay: In vivo activity in a cholesterol-fed hamster assay was determined at 1 mg/kg/day. Type of assay: functional, Cricetulus griseus.
The subject of assay [3] is Cricetinae gen. sp. Nature of the assay: In vivo activity in a cholesterol-fed hamster assay was determined at 50 mg/kg/day. In kind it is functional, Cricetulus griseus.
The test system of assay [4] is Cricetinae gen. sp. Nature of the assay: Effective dose required to produe activity in cholesterol hamster assay was determined. In kind it is functional, Cricetulus griseus.
Assay [5] relates to Cricetinae gen. sp. Nature of the assay: In vivo activity in a cholesterol-fed hamster assay was determined at 10 mg/kg/day. In kind it is functional, Cricetulus griseus.

Each structure is given as a SMILES string. Activity calls are given as the source filed them. The rule behind the calls is not given here.

What is called ED50 is the midpoint of the dose-response relation.

In the case of `O=C(O)[C@H]1OC(Oc2ccc([C@@H]3[C@@H](CC[C@H](O)c4ccc(F)cc4)C(=O)N3c3ccc(I)cc3)cc2)C(O)[C@@H](O)[C@@H]1O` (single isomer, unassigned), the ED50 entry with Cricetinae gen. sp. [1] was “inactive”. Also, the Reduction in the assay on Cricetinae gen. sp. [2] is -54%.

Regarding `COc1ccc([C@@H]2[C@@H](CCCc3ccc(I)cc3)C(=O)N2c2ccc(OC)cc2)cc1` (racemic), the ED50 entry in the assay with Cricetinae gen. sp. [1] was “inactive”. The Reduction in the assay on Cricetinae gen. sp. [3] was -56%.

Consider `COc1ccc([C@@H]2[C@@H](CCCc3ccccc3)C(=O)N2c2ccc(I)cc2)cc1` (racemic), for which the ED50 result in the assay on Cricetinae gen. sp. [1] is “inactive”. Besides, the Reduction in the assay with Cricetinae gen. sp. [3] was -82%.

`O=C1[C@H](CC[C@H](O)c2ccc(I)cc2)[C@@H](c2ccc(O)cc2)N1c1ccc(F)cc1`: in the assay on Cricetinae gen. sp. [1], the ED50 result was “inactive”. In addition, the Reduction with Cricetinae gen. sp. [2] is -54%.

On to `O=C1[C@H](CC[C@H](O)c2ccc(F)cc2)[C@@H](c2ccc(O)cc2)N1c1ccc(F)cc1` [EZETIMIBE], for which it took a dose of 0.04 mg/kg/day to reach the 50% effect level in the assay on Cricetinae gen. sp. [4] (ED50). Also, the Reduction in the assay on Cricetinae gen. sp. [2] is recorded as -100%.

On to `O=C1[C@H](CC[C@H](O)c2ccc(F)cc2)[C@@H](c2ccc(O)cc2)N1c1ccc(I)cc1`, for which the median effective dose (ED50) with Cricetinae gen. sp. [4] is 0.49 mg/kg/day. Besides, in the assay on Cricetinae gen. sp. [2], the Reduction is reported as -63%.

Compound `COc1ccc([C@@H]2[C@@H](CCCc3ccccc3)C(=O)N2c2ccc(OC)cc2)cc1` [SCH-48461] came in with an ED50 with Cricetinae gen. sp. [4] of 2.2 mg/kg/day. For the same compound, the Reduction in the assay with Cricetinae gen. sp. [5] was -93%.

The values above are taken from ChEMBL document CHEMBL1135025, “Synthesis of iodinated biochemical tools related to the 2-azetidinone class of cholesterol absorption inhibitors” (2002).
